The target of assay [1] is Cyclin-dependent kinase 2 (Homo sapiens, UniProt P24941).
Assay [2] concerns the target Cyclin-dependent kinase 1 (Homo sapiens, UniProt P06493).
Description: Inhibition of Cyclin-dependent kinase 1 (CDK1) at 12.5 uM ATP

SMILES strings stand for the structures.

Sequence of Cyclin-dependent kinase 1 (P06493 whole entry): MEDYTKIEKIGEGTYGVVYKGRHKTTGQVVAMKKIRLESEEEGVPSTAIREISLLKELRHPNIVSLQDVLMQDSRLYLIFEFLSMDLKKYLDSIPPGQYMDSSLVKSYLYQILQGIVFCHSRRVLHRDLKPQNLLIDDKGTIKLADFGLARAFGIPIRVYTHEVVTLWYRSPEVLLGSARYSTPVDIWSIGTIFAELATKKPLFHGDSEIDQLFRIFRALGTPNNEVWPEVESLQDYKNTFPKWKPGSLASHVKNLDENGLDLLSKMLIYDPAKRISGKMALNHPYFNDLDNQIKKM

By IC50 is commonly meant the concentration that inhibits the measured activity by half. Turning to `CSc1ccc(Nc2nc(N)c(N=O)c(OCC3CCCCC3)n2)cc1`, the IC50 in assay [1] is 120 nM; in assay [2], 220 nM.
The matching figures for `NC(=O)c1ccc(Nc2nc(N)cc(OCC3CCCCC3)n2)cc1`: 59000 nM and 63000 nM.
For `Nc1nc(Nc2cccc(Br)c2)nc(OCC2CCCCC2)c1N=O`, in that order: 500 nM and 800 nM.
The matching figures for `Nc1nc(Nc2ccc(S(N)(=O)=O)cc2)nc(OCC2CCCCC2)c1N=O`: 1.1 nM and 5 nM.
Take `COc1ccc(Nc2nc(N)c(N=O)c(OCC3CCCCC3)n2)cc1`: the values for the IC50 in assay [1] and in assay [2] were 220 nM and 230 nM, respectively.
Consider `Nc1cc(OCC2CCCCC2)nc(Nc2ccc(S(N)(=O)=O)cc2)n1`, for which the figures for the IC50 in assay [1] and in assay [2] were 2900 nM and 5300 nM, respectively.

The record behind these values is ChEMBL document CHEMBL1136212, “Structure-based design of 2-arylamino-4-cyclohexylmethyl-5-nitroso-6-aminopyrimidine inhibitors of cyclin-dependent kinases 1 and 2” (Bioorg Med Chem Lett, 2003).
